The values that follow come from patent publication US12151010B2, “Skin lightening agent” (POLA CHEMICAL INDUSTRIES, INC., priority 2018, dated 2024).

Each structure is given as a SMILES string.

The subject of the test is pigmentation of UV-irradiated test sites on the medial upper arms of panelists. Nature of the test: Test of skin whitening effect (pigmentation ameliorating effect), skin lightness L* by color difference meter after UV irradiation. The test is classed as in vivo, human (panelists). The note with it: for Pigmentation amelioration Rating: 25-day application; for Pigmentation amelioration ΔL*: 50 μL twice a day for 25 days after 3x 1 MED UV, L* minus Comparative Example site. The protocol: The cosmetics according to Table 1 (Examples 1 to 9, Comparative Example, and Reference Example) were prepared respectively in a conventional manner. With regard to each of the prepared cosmetics, the skin whitening effect (pigmentation ameliorating effect) was evaluated by the following method. That is, total 8 test sites in a size of 0.5 cm×0.5 cm were established on the medial parts of the left and right upper arms of each of 10 panelists who participated voluntarily. Each established site was irradiated with a minimum erythema dose (1 MED) of UV light once a day for three consecutive days, namely totally three times. At the end of the UV irradiation on the first day of the test (at the end of the first irradiation) and thereafter each 50 μL of the cosmetics of Comparative Example and any one of Examples 1 to 9 or Reference Example were applied respectively to one site and the remaining seven sites twice a day for 25 consecutive days. The skin lightness (L* value) of each test site was measured 24 hours after the end of the 25-day application period with a color difference meter (CR-300, Konica Minolta Holdings, Inc.). By subtracting the L* value of the site to which the cosmetic of Comparative Example was applied from each L* value of the sites to which the cosmetic of Example or Reference Example was applied, the difference in skin lightness (ΔL* value) was calculated. Since the L* value decreases, as the degree of pigmentation becomes severer, it may be so judged that pigmentation is ameliorated, when the ΔL* value is higher.

[1] abbreviates: content 1% by mass in Table 1 cosmetic.
Setting [2] is: content 0.01% by mass in Table 1 cosmetic.
Setting [3] is: content 3% by mass in Table 1 cosmetic.

`CCCCCC(=O)OCCCc1ccc(C(=O)C2CCC(CN)CC2)cc1` (centres unmarked) [Compound 4, 3-[p-(4-aminomethylcyclohexylcarbonyl)phenyl]propyl hexanoate]: under setting [1], the “Pigmentation amelioration Rating” value is “A (0.4 < ΔL* < 0.5)” and the “Pigmentation amelioration ΔL*” value stood at 0.45.
In the case of `NCC1CCC(C(=O)c2ccc(CCCO)cc2)CC1` (centres unmarked) [Compound 3, 3-[p-(4-aminomethylcyclohexylcarbonyl)phenyl]propanol], under setting [2], the “Pigmentation amelioration Rating” value is “A (0.4 < ΔL* < 0.5)” and the “Pigmentation amelioration ΔL*” value worked out at 0.45. For the same compound, under setting [1], the “Pigmentation amelioration Rating” value is recorded as “A (0.4 < ΔL* < 0.5)” and the “Pigmentation amelioration ΔL*” value is 0.48.
Regarding `CCCCCC(=O)OCC(C)Cc1ccc(C(=O)C2CCC(CN)CC2)cc1` (centres unmarked) [Compound 5, 2-methyl-3-[p-(4-aminomethylcyclohexylcarbonyl)phenyl]propyl hexanoate], under setting [1], the “Pigmentation amelioration Rating” value was “A (0.4 < ΔL* < 0.5)” and the “Pigmentation amelioration ΔL*” value came to 0.42.
Take `NC[C@H]1CC[C@H](C(=O)O)CC1` [Tranexamic acid, reference compound]: under setting [1], the “Pigmentation amelioration Rating” value was “B (ΔL* ≤ 0.4)” and the “Pigmentation amelioration ΔL*” value is 0.40.
On the same counts, the results for `Cl.NCC1CCC(C(=O)c2ccc(CCC(=O)O)cc2)CC1` (centres unmarked) [Hydrochloride of Compound 1] are “AA (ΔL* ≥ 0.5%)” and 0.52.
In the case of `CCCCCCOC(=O)CCc1ccc(C(=O)C2CCC(CN)CC2)cc1` (centres unmarked) [Compound 2, 3-[p-(4-aminomethylcyclohexylcarbonyl)phenyl]propionate hexyl], under setting [1], the “Pigmentation amelioration Rating” value is reported as “A (0.4 < ΔL* < 0.5)” and the “Pigmentation amelioration ΔL*” value turned out to be 0.43.
With `NCC1CCC(C(=O)c2ccc(CCC(=O)O)cc2)CC1` (centres unmarked) [Compound 1, 3-[p-(4-aminomethylcyclohexylcarbonyl)phenyl]propionic acid], the “Pigmentation amelioration Rating” value reads like this: under setting [2], “A (0.4 < ΔL* < 0.5)”; under setting [1], “AA (ΔL* ≥ 0.5%)”; under setting [3], “AA (ΔL* ≥ 0.5%)”. Besides, the “Pigmentation amelioration ΔL*” value by setting is: under setting [2], 0.47; under setting [1], 0.50; under setting [3], 0.52.
